Measured values taken from patent US10450346B2, “Immunotherapy against several tumors of the blood, in particular chronic lymphoid leukemia (CLL)” (Immatics biotechnologies GmbH, priority 2014, dated 2019).

Assays:
CLL patient CD8+ T cells = assay: HLA:peptide tetramer staining; type: cell-based, human
Protocol: The frequency of peptide-specific CD8^+ T cells was determined by staining with anti-CD8 and HLA:peptide-tetramer-PE

[1] = system: peptide-specific CD8+ T cells of CLL patient PBMC; assay: Intracellular IFN-γ and TNF-α staining; type: cell-based, human; conditions: peptide stimulated CLL patient PBMC
Protocol: PBMC from CLL patients and healthy volunteers were cultured in RPMI1640 medium (Gibco) supplemented with 10% pooled human serum (PHS, produced in-house), […] β-mercaptoethanol (Roth, Karlsruhe, Germany) and 1% penicillin/streptomycin (GE). For CD8^+ T cell stimulation, PBMC were thawed and pulsed with 1 μg/ml per peptide. Peptide-pulsed PBMC (5-6×10^6 cells/ml) were cultured at 37° C. and 5% CO2 for 12 days. On day 0 and day […] IL-4 (R&D Systems, Minneapolis, Minn., USA) and 5 ng/ml IL-7 (Promokine, Heidelberg, Germany) were added to the culture medium. On days 3, 5, 7 and 9, 2 ng/ml IL-2 (R&D Systems) were added to the culture medium. Peptide-stimulated PBMC were functionally characterized by ELISPOT assays on day 12 and by intracellular cytokine staining on day 13 respectively. For CD4^+ T-cell stimulation, culture was performed as described for CD8^+ T cells with 2 modifications: pulsing was carried out with 10 μg/ml of HLA class II peptide and no IL-4 and IL-7 was added.
The frequency and functionality of peptide-specific CD8^+ T cells was analyzed by intracellular IFN-γ and TNF-α staining. PBMC were pulsed with 1 μg/ml of individual peptide and incubated in the presence of 10 μg/ml Brefeldin A (Sigma, St. Louis, Mo., USA) and 10 μg/ml GolgiStop (BD) for 6-8 h. […] Samples were analyzed on a FACS Canto II.

MHC class I = assay: MHC binding assay (peptide-ligand exchange, β2m ELISA); design: species or system human; conditions: yield of UV-exchange reaction
Excerpt: Candidate peptides for T cell based therapies according to the present invention were further tested for their MHC binding capacity (affinity). The individual peptide-MHC complexes were produced by peptide-ligand exchange, where a cleavage-sensitive peptide is cleaved, and exchanged with the peptide of interest as analyzed. Only peptide candidates that can effectively bind and stabilize the peptide-receptive MHC molecules prevent dissociation of the MHC complexes. To determine the yield of the exchange reaction, an ELISA was performed based on the detection of the light chain (β2m) of stabilized MHC complexes. The assay was performed as generally described in Rodenko et al. (Rodenko et al., Nat Protoc. 1 (2006): 1120-1132).
96 well MAXISorp plates (NUNC) were coated over night with 2 ug/ml streptavidin in PBS at room temperature, washed 4× and blocked for 1 h at 37° C. in 2% BSA containing blocking buffer. Refolded HLA-A*0201/MLA-001 monomers served as standards, covering the range of 15-500 ng/ml. Peptide-MHC monomers of the UV-exchange reaction were diluted 100 fold in blocking buffer. Samples were incubated for 1 h at 37° C., washed four times, incubated with 2 ug/ml HRP conjugated anti-β2m for 1 h at 37° C., washed again and detected with TMB solution that is stopped with […]. Absorption was measured at 450 nm. […]

[2] = system: CD8+ T cells of healthy donors; assay: In vitro T-cell priming with aAPCs loaded with peptide/MHC complexes and anti-CD28 antibody; type: cell-based, human; conditions: pMHC multimer readout
Protocol: In order to obtain information regarding the immunogenicity of the TUMAPs of the present invention, the inventors performed investigations using an in vitro T-cell priming assay based on repeated stimulations of CD8+ T cells with artificial antigen presenting cells (aAPCs) loaded with peptide/MHC complexes and anti-CD28 antibody. […]
Generation of pMHC/anti-CD28 coated beads, T-cell stimulations and readout was performed in a highly defined in vitro system using four different pMHC molecules per stimulation condition and 8 different pMHC molecules per readout condition. […]
800.000 beads/200 μl were coated in 96-well plates in the presence of 4×12.5 ng different biotin-pMHC, washed and 600 ng biotin anti-CD28 were added subsequently in a volume of 200 μl. […] For the pMHC multimer readout using 8 different pMHC molecules per condition, a two-dimensional combinatorial coding approach was used as previously described (Andersen et al., Nat. Protoc. 7 (2012): 891-902) with minor modifications encompassing coupling to 5 different fluorochromes. […] Peptide specific cells were calculated as percentage of total CD8+cells. […] In vitro priming of specific multimer+ CD8+ lymphocytes was detected by comparing to negative control stimulations.

SSSGLHPPK (listed as Homo sapiens) [SEQ ID NO: 77]
tetramer staining of CD8+ T cells (CLL patient CD8+ T cells): confirmed | intracellular cytokine staining for IFNγ and TNFα [1]: confirmed

239 (SENAFYLSP; listed as Homo sapiens) [compound 239]
Peptide exchange (MHC class I binding score) (MHC class I): ++++ (>=75% = ++++)

229 (FRVGNVQEL; listed as Homo sapiens) [compound 229]
Peptide exchange (MHC class I binding score) (MHC class I): ++++ (>=75% = ++++)

KFAEEFYSF (listed as Homo sapiens) [SEQ ID NO: 20]
in vitro T-cell responses, positive donors of tested donors [2]: 2 of 5
